Source: patent publication US5328909A, “Cyclopropenone derivatives” (Mitsubishi Kasei Corporation, priority 1991, dated 1994)
pIC50: −log10 of the molar value. Read-outs that look alike come from different tables or passages of the source.

Columns and labels:
papain = biological target: T1, papain (Carica papaya, UniProt P00784); experiment: Thiol protease inhibitory activity against papain (P-3125, Sigma); format: biochemical; details: Table 3; read-out: IC50 (μM) papain
T1 sequence (P00784 134-345): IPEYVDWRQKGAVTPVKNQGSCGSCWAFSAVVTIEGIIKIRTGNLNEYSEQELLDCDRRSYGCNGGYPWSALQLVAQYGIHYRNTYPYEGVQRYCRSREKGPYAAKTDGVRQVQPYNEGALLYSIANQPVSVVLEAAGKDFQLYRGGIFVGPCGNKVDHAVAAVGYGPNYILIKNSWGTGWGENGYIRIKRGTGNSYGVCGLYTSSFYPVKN
Method: (§1) Inhibitory activity against papain (P-3125, Sigma) and cathepsin B (C-6286, Sigma) was assayed according to the method described in a literature [Biochemical Journal, 201, 189 (1982)]. Capthesin L was purified from rat kidney according to the method in a literature [Journal of Biochemistry, 100, 35 (1986)], and the inhibitory activity against it was assayed in the same manner as described in the above literature for cathepsin B. Further, m-calpain was purified from rat brain according to a known method [Journal of Biological Chemistry, 254, p.3210 (1984)] and the inhibitory activity against it was assayed by a method described in a literature [Journal of Biological Chemistry, 259, 12489 (1984)]. The results are showing in Tables 3 and 4. It is evident from Tables 3 and 4 that the compounds in the present invention have a potent inhibitory activity against thiol proteases such as papain, cathepsin B, cathepsin L, m-calpain or the like.

cathepsin B = biological target: T2, cathepsin B (Bos taurus, UniProt P07688); experiment: Thiol protease inhibitory activity against cathepsin B (C-6286, Sigma); format: biochemical
T2 construct: purchased Sigma C-6286
Method: as §1

cathepsin L = biological target: T3, cathepsin L (Rattus norvegicus, UniProt P07154); experiment: Thiol protease inhibitory activity against cathepsin L purified from rat kidney; format: biochemical
T3 construct: Capthesin L was purified from rat kidney; from tissue; host or cells: rat kidney
Method: as §1

m-calpain = biological target: T4, m-calpain (Rattus norvegicus, UniProt Q07009); experiment: Thiol protease inhibitory activity against m-calpain purified from rat brain; format: biochemical
T4 construct: m-calpain was purified from rat brain; from tissue; host or cells: rat brain
T4 sequence (Q07009 20-700 limits assumed): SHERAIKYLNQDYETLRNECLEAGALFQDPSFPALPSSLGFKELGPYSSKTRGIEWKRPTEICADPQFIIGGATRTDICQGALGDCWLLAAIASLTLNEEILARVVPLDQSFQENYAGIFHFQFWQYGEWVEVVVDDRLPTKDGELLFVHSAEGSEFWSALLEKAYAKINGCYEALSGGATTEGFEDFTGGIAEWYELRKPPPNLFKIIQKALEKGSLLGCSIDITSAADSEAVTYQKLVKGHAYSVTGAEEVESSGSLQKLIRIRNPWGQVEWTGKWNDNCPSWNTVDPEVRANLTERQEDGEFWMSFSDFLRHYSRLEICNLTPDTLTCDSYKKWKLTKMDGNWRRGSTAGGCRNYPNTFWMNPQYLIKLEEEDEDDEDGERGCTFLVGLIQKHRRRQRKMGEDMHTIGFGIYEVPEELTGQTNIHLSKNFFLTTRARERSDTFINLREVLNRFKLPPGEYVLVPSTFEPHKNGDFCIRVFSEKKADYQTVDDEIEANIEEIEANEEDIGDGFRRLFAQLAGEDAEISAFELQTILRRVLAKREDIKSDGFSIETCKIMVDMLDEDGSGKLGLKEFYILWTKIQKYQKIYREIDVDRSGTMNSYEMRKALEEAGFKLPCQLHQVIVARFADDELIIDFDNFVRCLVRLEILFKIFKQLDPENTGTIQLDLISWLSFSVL
T4 sequence (Q64537 1-270 partner): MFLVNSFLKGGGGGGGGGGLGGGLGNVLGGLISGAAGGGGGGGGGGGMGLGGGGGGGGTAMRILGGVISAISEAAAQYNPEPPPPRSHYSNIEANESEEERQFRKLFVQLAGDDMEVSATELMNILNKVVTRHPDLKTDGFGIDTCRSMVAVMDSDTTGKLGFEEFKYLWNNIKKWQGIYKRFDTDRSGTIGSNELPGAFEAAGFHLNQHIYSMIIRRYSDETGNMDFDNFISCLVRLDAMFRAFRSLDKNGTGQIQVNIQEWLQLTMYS
Procedure, shortened: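 Papain and bovine cathepsin B assayed by a published method; cathepsin L purified from rat kidney and tested as for cathepsin B. m-Calpain purified from rat brain and assayed by a separate published method.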

[1] = Acute oral toxicity, rats observed for 7 days; details: rat, in vivo, suspension in 0.5% CMC-Na aqueous solution, SD female and male rats, 7 days observation
Method: The LD50 value of the compound (I) prepared in Example 1 is: >2,000 mg/kg.

[2] = test system: microtubule-associated protein; details: after the brain ischemia; cited from earlier work
[3] = test system: experimental muscular dystrophy hamster; details: cited from earlier work
[4] = test system: aggregation of platelet caused by thrombin; details: cited from earlier work
cataract animal models = details: cited from earlier work
[5] = test system: rat with enhanced bone destruction by administration of parathyroid hormone; details: cited from earlier work
production of IgE = details: cited from earlier work
[6] = test system: cardiac infarction animal models; details: cited from earlier work
[7] = test system: brain trauma models of rat; details: cited from earlier work

T3 sequence (P07154 114-288 limits assumed): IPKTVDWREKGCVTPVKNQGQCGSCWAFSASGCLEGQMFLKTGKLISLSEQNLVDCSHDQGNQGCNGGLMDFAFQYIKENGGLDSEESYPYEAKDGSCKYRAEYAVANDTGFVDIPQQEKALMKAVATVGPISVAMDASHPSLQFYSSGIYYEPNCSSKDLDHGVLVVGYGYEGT
T3 sequence (P07154 291-334 limits assumed): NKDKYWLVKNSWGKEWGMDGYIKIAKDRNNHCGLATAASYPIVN

For `CC(C)C[C@H](NC(=O)OCC1CCCCC1)C(=O)N[C@@H](C(C)C)[C@@H](O)c1c(-c2ccccc2)c1=O` [1 (No. 77), 2-[(1S,2S)-2-{(s)-2-cyclohexylmethoxycarbonylamino-4-methylvalerylamino}-1-hydroxy-3-methylbuthyl]-3-phenylcyclopropenone], the IC50 (papain) was 0.054 µM, the IC50 (cathepsin B; Table 3, read-out: IC50 (μM) cathepsin B) was 0.71 µM and the IC50 (cathepsin L; Table 3, rat kidney enzyme, read-out: IC50 (μM) cathepsin L) was 0.00086 µM. The IC50 (m-calpain; Table 3, rat brain enzyme, read-out: IC50 (μM) m-calpain) was 1.6 µM and the LD50 at 168 h [1] was > 2000 mg/kg.

`CCCC[C@H](NC(=O)[C@H](CC(C)C)NC(=O)OCC1CCCCC1)C(O)c1c(-c2ccc([Si](C)(C)C)s2)c1=O` (stereo partly drawn) [115 (No. 387), 2-[(2S)-2-((S)-2-cyclohexylmethoxycarbonylamino-4-methylvalerylamino)-1-hydroxy-1-hexyl]-3-(5-trimethylsilyl-2-thienyl)cyclopropenone] gave an IC50 (papain) of 0.48 µM, a pIC50 (cathepsin B) of 5.82 and a pIC50 (cathepsin L) of 6.57. It also gave a pIC50 (m-calpain) of 4.96.

For `CC(C)CCNC(=O)[C@H](CC(C)C)NC(=O)[C@H]1O[C@@H]1C(=O)O` [E-64-C], the “degradation of microtubule-associated protein” value [2] is given as “inhibits the degradation of microtubule-associated protein”.

For `CCOC(=O)[C@H]1O[C@@H]1C(=O)N[C@@H](CC(C)C)C(=O)NCCC(C)C` [E-64-d], the life-prolonging effect [3] is given as “life-prolonging effect” and the aggregation of platelet [4] is given as “suppressed aggregation of platelet”.

For `CC(C)C[C@H](NC(=O)[C@H]1O[C@@H]1C(=O)O)C(=O)NCCCCNC(=N)N` [E-64], the effect on cataract (cataract animal models) is listed as “effective on cataract”, the “calcium concentration in blood” value [5] is listed as “decrease” and the “hydroxyproline concentration in blood” value [5] is listed as “decrease”.

In the case of `NC(N)=NCCCCNC(=O)[C@H](Cc1ccccc1)NC(=O)[C@H]1O[C@@H]1C(=O)O` [Estatin A], the “production of IgE” value (production of IgE) is given as “specifically inhibit the production of IgE”, the “production of IgG” value (production of IgE) is given as “without affecting on the production of IgG” and the “calcium concentration in blood” value [5] is given as “decrease”. The “hydroxyproline concentration in blood” value [5] was “decrease”.

For `CCOC(=O)[C@@H]1O[C@H]1C(=O)NC(CC(C)C)C(=O)N1CCN(Cc2ccc(OC)c(OC)c2OC)CC1.CCOC(=O)[C@@H]1O[C@H]1C(=O)NC(CC(C)C)C(=O)N1CCN(Cc2ccc(OC)c(OC)c2OC)CC1.O=S(=O)(O)O` (stereo partly drawn) [NCO-700], the “effect on cardiac infarction” value [6] is listed as “effective on cardiac infarction”.

In the case of `CC(=O)N[C@@H](CC(C)C)C(=O)N[C@@H](CC(C)C)C(=O)N[C@H](C=O)CCCNC(=N)N` [leupetin], the axon protection [7] is listed as “can protect axon”.
